The values that follow are results of earlier work, collected in patent US10945991B2, “Use and pharmaceutical composition for liver fibrosis prevention and/or treatment” (Cojet Biotech Inc., priority 2018, dated 2021).

Structures are written as SMILES.

The data set has as its system RAW 264.7 cell line.

On to `Cc1cc(O)c2c(c1O)OCO2` [MBDD, 5-methyl-benzol[1,3]dioxole-4,7-diol], for which, under “RAW 264.7 cell line, effect may result from cytotoxicity”, the “NO production induced by lipopolysaccharide” value was “reduce the NO production”. Also, where the note is “RAW 264.7 cells”, the cytotoxicity entry is reported as “strong cytotoxicity”.
